Experimental findings from article PMC9872612, “Mouse α-Defensins: Structural and Functional Analysis of the 17 Cryptdin Isoforms Identified from a Single Jejunal Crypt” (Infection and Immunity, 2022) are described below.

For one series, the system named is E. coli ATCC 25922. The series is described as follows: virtual colony count (vCC) bactericidal assay, E. coli. In kind it is cell-based, Escherichia coli. As for the experimental part:
(§1) All cryptdins were subjected to a virtual colony count assay (vCC) we have previously developed ([67]), in which E. coli ATCC 25922 and S. aureus ATCC 29213 are exposed to a 2-fold serial dilution of cryptdin for 2 h in 10 mM sodium phosphate buffer (pH 7.4), before bacterial growth in the presence of Mueller-Hinton broth is monitored spectrophotometrically at 650 nm for a period of 12 h. The dose-dependent killing of E. coli and S. aureus by all 17 cryptdins is shown as bacterial survival curves in Fig. 6. The virtual lethal doses (vLDs) of cryptdins at 50%, 10%, 1% and 0.1% bacterial survival (or the vLD50, vLD90, vLD99, and vLD99.9 values) are tabulated in Table 1. The bactericidal activity of the Crp1 subclass of cryptdins is highly variable despite a high degree of sequence identity, with Crp1, Crp6, Crp11, and Crp16 being the weakest against both strains and Crp3, Crp8 to Crp10, Crp13, Crp14, and Crp17 being the strongest. The vLD50, vLD90, vLD99 and vLD99.9 values for Crp11 to E. coli differ from those for Crp14 by 3.4-, 7.0-, 11.8-, and 12.7-fold, respectively; for comparison, the vLD values for Crp11 to S. aureus are 3.1-, 5.0-, 6.8-, and 8.1-fold versus those for Crp10, respectively. Overall, S. aureus appears more susceptible to cryptdin killing than E. coli.
(§2) Antimicrobial assays against E. coli ATCC 25922 and S. aureus ATCC 29213 were conducted using a published 96-well turbidimetric method called “virtual colony count” ([67]). Briefly, a 2-fold dilution series of cryptdin, ranging from 1 to 256 μg/mL in 10 mM sodium phosphate (pH 7.4), was incubated at 37°C for 2 h with E. coli or S. aureus at 1 × 10^6 CFU/mL (a total volume of 100 μL), followed by the addition of 100 μL of twice-concentrated Mueller-Hinton broth (MHB). In addition to […] controls containing no cryptdin, a negative control termed “input” consisted of a portion of the same cell suspension kept on ice during the initial 2 h of incubation and added to the microplate just before addition of 100 μL of twice-concentrated MHB. Kinetic measurements of bacterial growth at 37°C were taken every 5 min over the next 12 h spectrophotometrically at 650 nm using a Tecan Spark plate reader. Data analysis utilized a Visual Basic script to automate the determination of the time necessary for each growth curve to reach a threshold change in optical density at 650 nm of 0.02 (ΔOD650), as previously described ([67]). Since the threshold times are inversely and linearly dependent on the logarithmic concentration of bacteria ([67]), survival data can be readily inferred from these calibration curves established in the absence of cryptdin. The rate of survival was calculated as the number of CFU of cryptdin-treated cells/number of CFU of control cells.

Series [1] concerns same cryptdin peptide immobilized on a CM5 sensor chip. Nature of the series: surface plasmon resonance self-association of cryptdins. The conditions noted are these: 15.6-2,000 nM analyte over 400 to 500 RU of the same peptide on CM5 chip, 25°C, 10 mM HEPES, 150 mM NaCl, 3 mM EDTA, surfactant P20, pH 7.4; additional 150 mM NaCl for Crp1 and Crp11; Kd unattainable. The class given is binding, mouse. On the procedure: We examined Crp1, Crp4, Crp11, and Crp14 for their ability to self-associate at 25°C in 10 mM HEPES, 150 mM NaCl, 3 mM EDTA, 0.005% surfactant P20 (pH 7.4) using surface plasmon resonance (SPR) techniques. […] Due to the heterogenetic nature of defensin self-association and the lack of an appropriate mathematic model for data analysis, an accurate measurement of thermodynamic parameters such as Kd was unattainable.
FIG 10 Representative association and dissociation kinetics of cryptdins analyzed by surface plasmon resonance. Cryptdins in a 2-fold dilution series at concentrations ranging from 15.625 to 2000 nM were analyzed on self-immobilized sensor chips with resonance units (RUs) of 404 for Crp1 (A), 541 for Crp4 (B), 458 for Crp11 (C), 488 for Crp14 (D). To suppress nonspecific electrostatic interactions, an additional 150 mM NaCl was added to the running buffer for Crp1 and Crp11.
Surface plasmon resonance (SPR) experiments were performed, as described previously ([80]), on a BIAcore T200 system, at 25°C, in HBS-EP buffer (10 mM HEPES, 150 mM NaCl, 3 mM EDTA, […] surfactant P20 [pH 7.4]), with or without additional 150 mM NaCl. […] Analytes in a 2-fold dilution series at concentrations varying from 15.625 to 2,000 nM were injected into the flow cells at 30 μL/min in the running buffer, and association and dissociation assessed for 5 and 10 min, respectively. […]
On the technique in general: Surface plasmon resonance follows binding to a sensor surface in real time, without labels.

Series [2] is described as follows: dynamic light scattering (DLS) particle size / self-association in solution. The class given is physicochemical. To be noted: DLS number distribution, equilibrated 120 s, room temperature, Malvern Zetasizer, representative. On the procedure:
For verification, we subjected the four cryptdin peptides at 10 μM to dynamic light scattering (DLS) analysis in phosphate saline buffers at pH 7.4 and pH 3.0. […] However, the particle sizes of Crp1 and Crp11 shifted dramatically at the elevated pH, to ~200 nm and >1,000 nm, respectively, indicative of formation of high-ordered soluble aggregates in solution. These DLS data are in qualitative agreement with the SPR findings.
Of note, Cryp1 and Cryp11 are among the weakest cryptdins against E. coli and S. aureus, whereas Cryp4 and Cryp14 are potently bactericidal. This phenomenon raised an intriguing possibility that the ability of cryptdins to self-associate in solution could perhaps inform their antibacterial activity.
Dynamic light scattering (DLS) is a technique that can be used to measure the hydrodynamic diameter of proteins in solution. The principle of this technique lies in the fact that the apparent size of a protein molecule is inversely related to the speed at which it diffuses in a constant, random Brownian motion; size information can be derived mathematically through deconvolution algorithms once the rate at which the intensity of scattered laser light fluctuates as a function of time is determined by DLS ([93]). […]

The subject of the next series is S. aureus ATCC 29213. Nature of the series: virtual colony count (vCC) bactericidal assay, S. aureus. The class given is cell-based, Staphylococcus aureus. As for the experimental part: as §1, §2
Where [3] appears, read: virtual lethal dose killing 90% of input cells, 2 h at 37°C in 10 mM sodium phosphate pH 7.4, three independent assays.

“And” between values parts separate entries of the source, which are not always exact repeats. Equal entries are not always repeated. Positions of bridges follow the written chain, without caps; N, C: chain ends. No end group written: not given here.

In the case of “Crp1: mouse α-defensin cryptdin isoform 1, chemically synthesized and oxidatively folded, three disulfides (LRDLVCYCRSRGCKGRERMNGTCRKGHLLYTLCCR; disulfide 13-33, 8-23, 6-34; not fully specified; UniProt P11477 59-93, looked up)”, the “reduction of E. coli survival” value in the series on E. coli ATCC 25922 (peptide at 256 μg/mL, vCC) is given as 5 orders of magnitude. For the same substance, in the series on E. coli ATCC 25922 (virtual lethal dose killing 50% of input cells, 2-fold dilutions 1-256 μg/mL, 2 h at 37°C in 10 mM sodium phosphate pH 7.4, 1 × 10^6 CFU/mL, then MHB growth 12 h read at 650 nm, three independent assays), the “Mean vLD ± SD, E. coli ATCC 25922, vLD50” value came out at 5.9 ± 0.3 µg/mL. For the same substance, the “Mean vLD ± SD, E. coli ATCC 25922, vLD90” value in the series with E. coli ATCC 25922 (setting [3]) is 13.4 ± 0.6 µg/mL. For the same substance, the “Mean vLD ± SD, E. coli ATCC 25922, vLD99” value in the series with E. coli ATCC 25922 (virtual lethal dose killing 99% of input cells, 2 h at 37°C in 10 mM sodium phosphate pH 7.4, three independent assays, LOD = limit of detection) is 25.4 ± 2.3 µg/mL. In addition, the “Mean vLD ± SD, E. coli ATCC 25922, vLD99.9” value in the series with E. coli ATCC 25922 (virtual lethal dose killing 99.9% of input cells, 2 h at 37°C in 10 mM sodium phosphate pH 7.4, three independent assays, LOD = limit of detection) came to 41.9 ± 4.8 µg/mL. The “self-association/dissociation kinetics by SPR” value in series [1] is on record as “slow association, followed by slow dissociation kinetics”. In addition, the “particle size in diameter by DLS, pH 3.0” value in series [2] (10 μM peptide in phosphate saline buffer pH 3.0, filtered 0.22 μm disc membrane) is recorded as “around 1 nm”. For the same substance, in series [2] (10 μM peptide in phosphate saline buffer pH 7.4, filtered 0.22 μM disc membrane), the “particle size in diameter by DLS, pH 7.4” value is ~ 200 nm. Moreover, the “concentration at which S. aureus was completely killed / growth eliminated” value with S. aureus ATCC 29213 (vCC survival curves, 2-fold dilution series, mean of triplicate experiments) came to 32 µg/mL. The “Mean vLD ± SD, S. aureus ATCC 29213, vLD50” value in the series on S. aureus ATCC 29213 (virtual lethal dose killing 50% of input cells, 2 h at 37°C in 10 mM sodium phosphate pH 7.4, 1 × 10^6 CFU/mL, three independent assays) was 3.9 ± 0.6 µg/mL. Also, in the series with S. aureus ATCC 29213 (setting [3]), the “Mean vLD ± SD, S. aureus ATCC 29213, vLD90” value was determined as 6.1 ± 0.5 µg/mL. Further, the “Mean vLD ± SD, S. aureus ATCC 29213, vLD99” value with S. aureus ATCC 29213 (virtual lethal dose killing 99% of input cells, 2 h at 37°C in 10 mM sodium phosphate pH 7.4, three independent assays) amounted to 9.1 ± 0.3 µg/mL. In the series with S. aureus ATCC 29213 (virtual lethal dose killing 99.9% of input cells, 2 h at 37°C in 10 mM sodium phosphate pH 7.4, three independent assays), the “Mean vLD ± SD, S. aureus ATCC 29213, vLD99.9” value is 11.9 µg/mL and 11.9 ± 0.5 µg/mL.
